Measurements as given in ChEMBL document CHEMBL4325859, “Research advances on anticancer activities of matrine and its derivatives: An updated overview” (Eur J Med Chem, 2019).

How the values were obtained:
[1] = system: SW480; assay: Antitumor activity against human SW480 cells xenografted in Balb/c mouse assessed as tumor growth inhibition at 30 mg/kg, ip administered 2 times per week relative to control; assay type: functional; conditions: read-out: TGI
[2] = system: A-375; assay: Growth inhibition of human A375 cells by MTT assay; assay type: functional, cell-based
[3] = system: HeLa; assay: Growth inhibition of human HeLa cells by MTT assay; assay type: functional, cell-based
[4] = system: HT-29; assay: Antiproliferative activity against human HT-29 cells by MTT assay; assay type: functional, cell-based
[5] = system: PANC-1; assay: Antiproliferative activity against human PANC1 cells by MTT assay; assay type: functional, cell-based
[6] = system: HepG2; assay: Antiproliferative activity against human HepG2 cells by MTT assay; assay type: functional, cell-based
[7] = system: A-431; assay: Growth inhibition of human A431 cells at 120 umol/L by MTT assay relative to control; assay type: functional; conditions: read-out: GI
[8] = system: SW480; assay: Growth inhibition of human SW480 cells at 330 umol/L by MTT assay relative to control; assay type: functional; conditions: read-out: GI
[9] = system: A549; assay: Growth inhibition of human A549 cells at 330 umol/L by MTT assay relative to control; assay type: functional; conditions: read-out: GI
[10] = system: HT-29; assay: Growth inhibition of human HT-29 cells at 2.5 ug/ml by MTT assay relative to control; assay type: functional; conditions: read-out: GI
[11] = system: HT-29; assay: Growth inhibition of human HT-29 cells at 5 ug/ml by MTT assay relative to control; assay type: functional; conditions: read-out: GI
[12] = system: HT-29; assay: Growth inhibition of human HT-29 cells at 10 ug/ml by MTT assay relative to control; assay type: functional; conditions: read-out: GI
[13] = system: HT-29; assay: Growth inhibition of human HT-29 cells at 1.25 ug/ml by MTT assay relative to control; assay type: functional; conditions: read-out: GI

Row | Compound | IC50 [4] | IC50 [5] | IC50 [6] | other results
1 | O=c1[nH]cc(F)c(=O)[nH]1 [FLUOROURACIL] |  |  |  | inhibition in vivo at 30 mg/kg [1]: 63.1%
2 | CCCCOC(=O)CCC[C@@H]1[C@H]2CCCN3CCC[C@@H](CN1Cc1ccccc1)[C@@H]23 |  |  |  | IC50 [2]: 149 µM; IC50 [3]: 304 µM
3 | COc1ccc(/C=C2\CC[C@@H]3[C@H]4CCCN5CCC[C@@H](CN3C2=O)[C@@H]45)c(OC)c1OC | 13.2 µM | 13.2 µM |  | 
4 | COc1ccc(/C=C2\CC[C@@H]3[C@H]4CCCN5CCC[C@@H](CN3C2=O)[C@@H]45)cc1 | 27.8 µM | 27.8 µM |  | 
5 | O=C(CCC[C@@H]1[C@H]2CCCN3CCC[C@@H](CN1Cc1ccccc1)[C@@H]23)OCCOCCc1no[n+]([O-])c1S(=O)(=O)c1ccccc1 |  |  | 14.2 µM | 
6 | O=C1C[C@@H](SC(=S)N2CCCCC2)C[C@@H]2[C@H]3CCCN4CCC[C@@H](CN12)[C@@H]34 |  |  |  | inhibition of growth at 120 µM [7]: > 94%; inhibition of growth at 330 µM [8]: > 65%; inhibition of growth at 330 µM [9]: > 95%
7 | COc1cc(/C=C2\CC[C@@H]3[C@H]4CCCN5CCC[C@@H](CN3C2=O)[C@@H]45)cc(OC)c1OC | 9.05 µM | 9.05 µM |  | 
8 | O=C(CCC[C@@H]1[C@H]2CCCN3CCC[C@@H](CN1Cc1ccccc1)[C@@H]23)OCCCc1no[n+]([O-])c1S(=O)(=O)c1ccccc1 |  |  | 11.5 µM | 
9 | O=C(CCC[C@@H]1[C@H]2CCCN3CCC[C@@H](CN1Cc1ccccc1)[C@@H]23)NCCc1no[n+]([O-])c1S(=O)(=O)c1ccccc1 |  |  | 8.02 µM | 
10 | O=C(CCC[C@@H]1[C@H]2CCCN3CCC[C@@H](CN1Cc1ccccc1)[C@@H]23)OCCc1no[n+]([O-])c1S(=O)(=O)c1ccccc1 |  |  | 11.4 µM | 
11 | CCc1c2c(nc3ccc(OC(=O)N4CCC(N5CCCCC5)CC4)cc13)-c1cc3c(c(=O)n1C2)COC(=O)[C@]3(O)CC [IRINOTECAN] |  |  |  | inhibition of growth at 2.5 µg/mL [10]: 37.4%; inhibition of growth at 5 µg/mL [11]: 54.7%; inhibition of growth at 10 µg/mL [12]: 59.3%; inhibition of growth at 1.25 µg/mL [13]: 22.9%
12 | COc1ccc(/C=C2\CC[C@@H]3[C@H]4CCCN5CCC[C@@H](CN3C2=O)[C@@H]45)cc1OC | 18 µM | 18 µM |  | 
